Reference: patent US9738932B2, “Biomarkers for cardiovascular side-effects induced by cox-2 inhibitory compounds” (FIRALIS SAS, priority 2005, dated 2017)

Test system: mRNA expression in cardiovascular tissues
Assay: Affymetrix GeneChip mRNA expression profiling of monkey tissues (iliac vein, pulmonary vein, aorta, carotid artery, heart) after two-week oral-gavage treatment
Details: iliac vein
[1] = group average (Vioxx without A60055)

## CS(=O)(=O)c1ccc(C2=C(c3ccccc3)C(=O)OC2)cc1 [Vioxx®, rofecoxib]
Animal A60055
  HFE (211329_x_at) fold change vs control: 1.8 fold
  HFE (211332_x_at) fold change vs control: 1.6 fold
  HFE (211863_x_at) fold change vs control: 1.8 fold
  HFE (211866_x_at) fold change vs control: 1.6 fold
  HHL (203020_at) fold change vs control: 2.2 fold
  HLA-A (211528_x_at) fold change vs control: 2.4 fold
  HLA-A (211529_x_at) fold change vs control: 2.1 fold
  HLA-A (211530_x_at) fold change vs control: 2.3 fold
  HLA-A (215313_x_at) fold change vs control: 1.8 fold
  HLA-B (208729_x_at) fold change vs control: 1.8 fold
  HLA-B (209140_x_at) fold change vs control: 1.9 fold
  HLA-B (211911_x_at) fold change vs control: 1.8 fold
  HLA-C (208812_x_at) fold change vs control: 1.8 fold
  HLA-C (214459_x_at) fold change vs control: 2.4 fold
  HLA-C (216526_x_at) fold change vs control: 2.0 fold
  HLA-DMA (217478_s_at) fold change vs control: 2.9 fold
  HLA-DMB (203932_at) fold change vs control: 1.5 fold
  HLA-DQA1 (212671_s_at) fold change vs control: 8.2 fold
  HLA-DQB1 (209823_x_at) fold change vs control: 4.3 fold
  HLA-DQB1 (211654_x_at) fold change vs control: 7.7 fold
  HLA-DQB1 (211656_x_at) fold change vs control: 4.1 fold
  HLA-DQB2 (212998_x_at) fold change vs control: 10.8 fold
  HLA-DRA (208894_at) fold change vs control: 2.3 fold
  HLA-DRA (210982_s_at) fold change vs control: 2.1 fold
  HLA-DRB1 (215193_x_at) fold change vs control: 2.9 fold
  HLA-DRB3 (209312_x_at) fold change vs control: 1.9 fold
  HLA-DRB6 (217362_x_at) fold change vs control: 2.2 fold
  HLA-E (200905_x_at) fold change vs control: 1.6 fold
  HLA-E (217456_x_at) fold change vs control: 1.8 fold
  HLA-F (204806_x_at) fold change vs control: 2.1 fold
  HLA-F (221875_x_at) fold change vs control: 2.3 fold
  ICAM1 (202638_s_at) fold change vs control: 1.6 fold
  ICAM1 (215485_s_at) fold change vs control: 2.1 fold
  ICSBP1 (204057_at) fold change vs control: 2.2 fold
  IFI27 (202411_at) fold change vs control: 20.8 fold
  IFI30 (201422_at) fold change vs control: 2.1 fold
  IFI44 (214453_s_at) fold change vs control: 8.2 fold
  IFIT1 (203153_at) fold change vs control: 5.0 fold
  IFIT2 (217502_at) fold change vs control: 4.7 fold
  IFIT4 (204747_at) fold change vs control: 1.6 fold
  IFITM2 (201315_x_at) fold change vs control: 1.9 fold
  IFITM3 (212203_x_at) fold change vs control: 1.6 fold
  IGF1 (209541_at) fold change vs control: 1.8 fold
  IGFBP4 (201508_at) fold change vs control: 1.7 fold
  IL1A (208200_at) fold change vs control: 2.2 fold
  IL2RG (204116_at) fold change vs control: 2.4 fold
  IL27RA (205926_at) fold change vs control: 2.2 fold
  INDO (210029_at) fold change vs control: 6.5 fold
  INPP5D (203332_s_at) fold change vs control: 1.7 fold
  IRF1 (202531_at) fold change vs control: 3.9 fold
  IRF7 (208436_s_at) fold change vs control: 3.4 fold
  ISGF3G (203882_at) fold change vs control: 3.1 fold
  ITGB2 (202803_s_at) fold change vs control: 1.7 fold
  JAK1 (214377_s_at) fold change vs control: 2.1 fold
  KLKB1 (206541_at) fold change vs control: 2.2 fold
  LAIR1 (208071_s_at) fold change vs control: 3.5 fold
  LCK (204890_s_at) fold change vs control: 2.2 fold
  LCP2 (205270_s_at) fold change vs control: 1.7 fold
  LILRB1 (207857_at) fold change vs control: 2.1 fold
  LILRB1 (211100_x_at) fold change vs control: 1.8 fold
  LILRB3 (208594_x_at) fold change vs control: 1.7 fold
  LILRB3 (210225_x_at) fold change vs control: 2.5 fold
  LRMP (204674_at) fold change vs control: 2.6 fold
  LY86 (205859_at) fold change vs control: 1.8 fold
  LY96 (206584_at) fold change vs control: 1.8 fold
  LYN (210754_s_at) fold change vs control: 1.7 fold
  MAF (209348_s_at) fold change vs control: 1.7 fold
  PCOLCE (202465_at) fold change vs control: 2.2 fold
  PLA2G4C (209785_s_at) fold change vs control: 3.3 fold
  PLCL2 (216217_at) fold change vs control: 1.7 fold
  PLSCR1 (202446_s_at) fold change vs control: 2.1 fold
  PRC1 (218009_s_at) fold change vs control: 2.0 fold
  PRG1 (201858_s_at) fold change vs control: 1.8 fold
  PRG1 (201859_at) fold change vs control: 1.5 fold
  PTPN22 (206060_s_at) fold change vs control: 2.5 fold
  PTPRC (207238_s_at) fold change vs control: 1.8 fold
  SOCS3 (206360_s_at) fold change vs control: 1.8 fold
  STAT1 (209969_s_at) fold change vs control: 13.5 fold
  STAT1 (AFFX-HUMISGF3A/M97935_5_at) fold change vs control: 4.3 fold
  STAT1 (AFFX-HUMISGF3A/M97935_MA_at) fold change vs control: 5.3 fold
  STAT1 (AFFX-HUMISGF3A/M97935_MB_at) fold change vs control: 7.1 fold
  TAPBP (208829_at) fold change vs control: 1.6 fold
  TCTEL1 (201999_s_at) fold change vs control: 1.7 fold
  TLR1 (210176_at) fold change vs control: 1.7 fold
  TLR2 (204924_at) fold change vs control: 1.7 fold
  TNFAIP3 (202643_s_at) fold change vs control: 2.0 fold
  TNFAIP3 (202644_s_at) fold change vs control: 2.3 fold
  TNFSF6 (210865_at) fold change vs control: 1.9 fold
  TNFSF10 (202687_s_at) fold change vs control: 2.9 fold
  TNFSF10 (202688_at) fold change vs control: 2.8 fold
  TRGC2 (211144_x_at) fold change vs control: 2.0 fold
  TRGC2 (216920_s_at) fold change vs control: 2.4 fold
  VCAM1 (203868_s_at) fold change vs control: 4.1 fold
  XCL1 (206366_x_at) fold change vs control: 4.3 fold
  XCL1 (214567_s_at) fold change vs control: 5.4 fold
  XLKD1 (219059_s_at) fold change vs control: 1.8 fold
  cig5 (213797_at) fold change vs control: 7.1 fold
[1]
  ACE (209749_s_at) mRNA expression, Avg fold changes vs control: 0.9 fold
  B2M (216231_s_at) mRNA expression, Avg fold changes vs control: 1.2 fold
